Values quoted from earlier work as cited in patent US20120149888A1, “SYNTHESIS OF ARA-2'-O-METHYL-NUCLEOSIDES, CORRESPONDING PHOSPHORAMIDITES AND OLIGONUCLEOTIDES INCORPORATING NOVEL MODIFICATIONS FOR BIOLOGICAL APPLICATION IN THERAPEUCTICS, DIAGNOSTICS, G- TETRAD FORMING OLIGONUCLEOTIDES AND APTAMERS” (priority 2009, published 2012).
Where “and” joins values, the source holds several entries; their conditions need not be identical. Identical values can stand only once. Entries after “also recorded” stand apart in the source; their conditions may differ. Like-named read-outs stand apart in the source and are kept apart here.

What was measured:
[1] = system: Ehrlich ascites resistant to 5-fluorodeoxyuridine (FUdR); conditions: 5-Fluorodeoxyuridine-resistant Ehrlich ascites
Ehrlich ascites (AZU 1) = conditions: 6-Azauracil-resistant Ehrlich ascites (AZU 1)
[2] = system: equilibrative NBMPR-sensitive nucleoside transporter (es); conditions: growth-inhibitory concentrations
L1210 TG/R = conditions: Thioguanine-resistant L1210 TG/R
[3] = system: 11 human tumor xenografts; conditions: 11 xenografts
[4] = system: explants of intact rat colonic mucosa
Raji leukemia = conditions: mouse, in vivo
[5] = system: human erythroleukemia cell line (K562)
[6] = system: hydroxyurea-, vincristine-, VLB-, TSC-, cortisone- and MGGH-resistant mouse leukemias
[7] = system: L1210 line resistant to MGGH; conditions: in vivo
Raji Burkitt's lymphoma = conditions: rat, in vivo
[8] = system: nucleoside carrier-dependent transport; conditions: in vitro
L1210/C95 = conditions: in vivo
P815/FU = conditions: in vivo
[9] = polarographically, aprotic conditions, in the presence of alpha-lipoic acid
Ehrlich ascites (ETGR1) = conditions: Thioguanine-resistant Ehrlich ascites (ETGR1)
Ehrlich ascites (EAC-R1) = conditions: 6-Mercaptopurine-resistant Ehrlich ascites (EAC-R1)
[10] = system: Lewis lung carcinoma cells; conditions: in vivo
[11] = system: mouse and human tumor cells
[12] = system: seven tumors (three melanomas, one lung adenocarcinoma, one breast cancer, and two osteogenic sarcomas); conditions: maximum tolerated dose, four weekly cycles of daily bolus i.v. injections for 5 days; lung carcinoma and all three malignant melanomas
L1210-ara-C = L1210-ara-C (Mihich et al., 1970)
[13] = system: 13 human cancer cell lines; conditions: for effect of tetrahydrouridine on antiproliferative activity: Cyd deaminase inhibitor
dCyd kinase = dCyd kinase (Homo sapiens, UniProt P27707)
human cancer xenograft = conditions: in vivo
human tumors [14] = system: human tumors
human tumors [15] = conditions: once, 3 times and 5 times weekly for 2 or 4 weeks
[16] = system: human nasopharyngeal KB cells
[17] = system: 36 human tumor cell lines
mouse leukemia L1210 = conditions: L1210 cells
L1210/CA = conditions: 1β-D-Arabinofuranosylcytosine-resistant L1210/CA
[18] = in vivo
[19] = target: purine nucleoside phosphorylase (PNP) (Homo sapiens, UniProt P00491)
[20] = system: T-lymphoblasts, B-lymphoblasts
topoisomerase I (top1) = topoisomerase I (top1) (Homo sapiens, UniProt P11387); conditions: gemcitabine incorporated immediately 3′ from a top1 cleavage site on the nonscissile strand
[21] = system: normal primary prostatic epithelial cells; conditions: concentrations up to 100 nM
[22] = system: P388/CPT45 top1-deficient cells
[23] = system: human TT cell line derived from MTC; conditions: 10, 25 and 50 microg/ml for 24 hours
[24] = system: drug-resistant P388 leukemias
[25] = system: bone marrow granulopoietic-macrophage progenitor cells; conditions: granulopoietic-macrophagic progenitor cells

Sequence of topoisomerase I (top1) (P11387 whole entry, species assumed): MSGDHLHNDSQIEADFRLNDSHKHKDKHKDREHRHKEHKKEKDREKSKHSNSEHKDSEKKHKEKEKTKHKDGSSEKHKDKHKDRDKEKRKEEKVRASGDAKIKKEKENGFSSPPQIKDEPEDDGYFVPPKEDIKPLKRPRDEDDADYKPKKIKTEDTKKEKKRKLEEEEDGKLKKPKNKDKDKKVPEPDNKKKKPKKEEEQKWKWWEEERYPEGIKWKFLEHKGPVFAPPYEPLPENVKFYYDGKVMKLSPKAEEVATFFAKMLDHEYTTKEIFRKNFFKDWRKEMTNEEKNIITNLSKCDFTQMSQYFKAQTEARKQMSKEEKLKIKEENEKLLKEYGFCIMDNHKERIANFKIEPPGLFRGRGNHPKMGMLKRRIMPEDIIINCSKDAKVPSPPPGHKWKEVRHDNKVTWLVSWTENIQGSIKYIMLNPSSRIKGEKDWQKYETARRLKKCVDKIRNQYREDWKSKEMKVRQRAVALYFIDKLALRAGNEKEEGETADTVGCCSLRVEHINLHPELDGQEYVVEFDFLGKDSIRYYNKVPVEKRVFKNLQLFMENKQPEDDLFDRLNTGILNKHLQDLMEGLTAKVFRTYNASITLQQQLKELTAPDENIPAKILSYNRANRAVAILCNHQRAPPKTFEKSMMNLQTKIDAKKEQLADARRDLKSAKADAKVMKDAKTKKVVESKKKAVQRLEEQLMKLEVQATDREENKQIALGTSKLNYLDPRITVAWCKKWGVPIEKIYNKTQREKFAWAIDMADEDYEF
Sequence of purine nucleoside phosphorylase (PNP) (P00491 whole entry, species assumed): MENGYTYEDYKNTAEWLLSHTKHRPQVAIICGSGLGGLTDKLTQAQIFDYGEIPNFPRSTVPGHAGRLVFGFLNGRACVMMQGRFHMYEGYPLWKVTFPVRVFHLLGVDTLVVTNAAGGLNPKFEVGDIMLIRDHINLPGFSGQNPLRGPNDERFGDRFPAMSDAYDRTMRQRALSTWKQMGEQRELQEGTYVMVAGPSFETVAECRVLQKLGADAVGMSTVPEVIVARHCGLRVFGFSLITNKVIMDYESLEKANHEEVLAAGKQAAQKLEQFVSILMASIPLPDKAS
Sequence of dCyd kinase (P27707 whole entry): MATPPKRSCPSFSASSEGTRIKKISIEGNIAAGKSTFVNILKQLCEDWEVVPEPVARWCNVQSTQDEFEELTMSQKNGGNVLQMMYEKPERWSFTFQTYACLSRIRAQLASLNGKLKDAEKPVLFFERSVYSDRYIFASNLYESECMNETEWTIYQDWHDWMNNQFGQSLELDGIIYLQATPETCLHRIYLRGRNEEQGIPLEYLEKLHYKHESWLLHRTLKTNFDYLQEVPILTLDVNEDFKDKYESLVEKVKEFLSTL

In the case of O=c1[nH]cc(F)c(=O)[nH]1 [5-fluorouracil], the “Response to chemotherapeutic drugs: Cross-resistant” value (shortened to “Response … Cross-resistant”) [1] is given as 5-Fluorouracil, the “Response to chemotherapeutic drugs: collaterally sensitive” value (“Response … collaterally sensitive” below) (Ehrlich ascites (AZU 1)) is given as 5-Fluorouracil and the “Response … collaterally sensitive” value (Ehrlich ascites (AZU 1); listed as FU) is given as “collaterally sensitive”. The expression of es [2] was “increases”, the “Response … Cross-resistant” value (L1210 TG/R) was 5-Fluorouracil and the “human tumors with potent inhibition” value [3] was “only one tumor”. The “incorporation of tritiated TdR into DNA” value [4] was “not altered” and the “levels of tritiated deoxyuridine” value [4] was “reduced”.
For Nc1ccn([C@@H]2O[C@H](CO)[C@@H](O)[C@@H]2O)c(=O)n1 [Ara-C, 1-β-D-Arabinofuranosylcytosine], the “animals that survived (>80 days)” value (Raji leukemia) is given as “none”, the mean survival time (Raji leukemia) is given as 34.2 days and the “resistance of K562R to ara-C compared with K562S” value ([5]; 3H-dThd incorporation, MTT dye reduction and clonogenicity) is given as “approximately 15 fold”. The “ara-CTP accumulated by K562S versus K562R” value ([5]; 4-h exposure, 10 microM) was “seven times more”, the “more ara-C incorporated into DNA by K562S versus K562R” value ([5]; 4-h exposure, 10 microM) was “approximately 250%” and the “activity against drug-resistant mouse leukemias” value [6] was “active”. The “Response … Cross-resistant” value (AKR/r-AzCdR; mouse, in vivo) was “cross-resistant; also recorded: Ara-C”, the “Response … Cross-resistant” value (AKR/r-AzCR; mouse, in vivo) was “cross-resistant; also recorded: Ara-C” and the “response of MGGH-resistant L1210 line to the drug” value [7] was “collaterally sensitive”. For the same compound, the mean survival time (Raji Burkitt's lymphoma) was 13.2 days, the “Response to chemotherapeutic drugs: Same as parent line” value (shortened to “Response … as parent line”) (L1210/MP(III); mouse, in vivo) was “retained sensitivity; also recorded: Ara-C” and the expression of es [2] was “no significant increase”. The “Response … as parent line” value (Sarcoma 180; in vivo) was “Ara-C”, the “cellular sensitivity in presence of nitrobenzylmercaptopurine riboside and dipyridamol” value [8] was “reduced strongly” and the “response of L1210/C95 to the drug” value (L1210/C95) was “sensitive”. The “Response … as parent line” value (P815/FU) was “retained the same sensitivity; also recorded: Ara-C”.
For Nc1ncn([C@@H]2O[C@H](CO)[C@@H](O)[C@H]2O)c(=O)n1 [AzCR, 5-azacytidine], the “Response … as parent line” value (AKR/r-AzCdR; 5-Aza-2′-deoxycytidine-resistant AKR-r-AzCdr) is given as “sensitive; also recorded: AKR-r-AzCdr AzCR” and the “index of potential carcinogenicity tg alpha” value [9] is given as 0.295.
For Nc1ncn([C@H]2C[C@H](O)[C@@H](CO)O2)c(=O)n1 [AzCdR, 5-aza-2′-deoxycytidine], the “Response … Cross-resistant” value (AKR/r-AzCR; 5-Azacytidine-resistant AKR/r-AzCR) is given as “cross-resistant; also recorded: AzCdR”.
For CSc1ncnc2c1ncn2[C@@H]1O[C@H](CO)[C@@H](O)[C@H]1O [Compound 6-MeMPR, 6-methyl thio-purine ribonucleoside], the “Response … Cross-resistant” value (Ehrlich ascites (ETGR1)) is listed as “partially cross-resistant and 6-MeMPR^b”, the “Response … Cross-resistant” value (Ehrlich ascites (EAC-R1)) is listed as “partially cross-resistant and 6-MeMPR^b” and the “Response … as parent line” value (L1210/MP(III); 6-Mercaptopurine-resistant L1210/MP(III)) is listed as “retained sensitivity and 6-MeMPR”.
In the case of [C-]#[N+][C@H]1[C@H](O)[C@@H](CO)O[C@H]1n1ccc(N)nc1=O [Compound 8, 2′-Deoxy-2′-isocyano-1-beta-D-arabinofuranosylcytosine], the tumor volume inhibition [10] is given as “only moderate tumor volume inhibition” and the cytotoxicity [11] is given as “moderately cytotoxic”.
In the case of CCCCCCCC/C=C/CCCCCCCC(=O)OC[C@H]1O[C@@H](n2ccc(N)nc2=O)[C@@H](O)[C@@H]1O [Compound P-4055], the tumor response [12] is given as “partial or complete tumor regression”, the “animals that survived (>80 days)” value (Raji leukemia) is given as 8 of 10 and the “long-time survivors (>70 days)” value (Raji Burkitt's lymphoma) is given as “three of five”. For the same compound, the “cellular sensitivity in presence of nitrobenzylmercaptopurine riboside and dipyridamol” value [8] was “not”.
For CC(=NNC(=N)N)c1ccc(NC(=O)Nc2ccc(C(C)=NNC(=N)N)cc2)cc1 [DDUG, 4′,4′-diacetyldipenylurea bis(guanylhydrazone)], the “Response … Cross-resistant” value (L1210-ara-C) is given as “DDUG”.
For C=C1[C@H](n2ccc(N)nc2=O)O[C@H](CO)[C@H]1O [DMDC, 2′-deoxy-2′-methylidenecytidine], the “suppression of the antiproliferative activity of DMDC by dCyd” value [13] is listed as “up to 150 fold”, the “effect of tetrahydrouridine on antiproliferative activity” value [13] is listed as “reduced” and the “VmaxKm for dCyd kinase, lower than that for dCyd” value (dCyd kinase) is listed as 8 fold. For the same compound, the “efficacy in tumors with higher levels of Cyd deaminase” value (human cancer xenograft) was “highly effective” and the “efficacy in tumors with lower levels of Cyd deaminase” value (human cancer xenograft) was “only slight activity”.
For C#C[C@@]1(O)[C@@H](CO)O[C@@H](n2ccc(N)nc2=O)[C@@H]1O [ECyd, 1-(3-C-ethynyl-beta-D-ribo-pentofuranosyl)cytosine], the cytotoxicity (human tumors [14]; 24 and 72 h exposures) is listed as “sufficiently potent cytotoxicity”, the cytotoxicity (human tumors [14]; 4 h exposure) is listed as “fairly potent cytotoxicity” and the antitumor activity (human tumors [15]) is listed as “strong antitumor activity without serious toxicity”. The IC50 [16] was 28 nM, the 1050 values [17] was “nanomolar to micromolar range” and the IC50 (mouse leukemia L1210) was 16 nM. The “human tumors with potent inhibition” value [3] was 9 of 11.
For CC(C=NNC(=N)N)=NNC(=N)N [MGGH, methylglyoxal bis(guanylhydrazone)], the “Response … as parent line” value (L1210-ara-C) is listed as “MGGH” and the “Response … as parent line” value (L1210/CA) is listed as “MGGH”.
In the case of COc1nc(N)nc2c1ncn2[C@@H]1O[C@H](CO)[C@@H](O)[C@@H]1O [Nelarabine], the “dose toxicity in the clinical trials” value [18] is listed as “neurotoxicity”.
For Nc1nc(N)c2ccc(CNc3ccc(C(=O)N[C@@H](CC(=O)O)C(=O)O)cc3)cc2n1 [Quinaspar], the “Response … collaterally sensitive” value (Sarcoma 180; 6-Mercaptopurine-resistant Sarcoma 180) is given as “Quinaspar”.
For Nc1nc2c(ncn2[C@@H]2O[C@H](CO)[C@@H](O)[C@@H]2O)c(=O)[nH]1 [araG, N-9-[β-D-Arabinofuranosyl]guanine], the “degradation by purine nucleoside phosphorylase (PNP)” value [19] is given as “relatively resistant” and the “efficiency in T-lymphoblasts compared to B-lymphoblasts” value [20] is given as “higher efficiency”.
In the case of Nc1ccn([C@@H]2O[C@H](CO)[C@@H](O)C2(F)F)c(=O)n1 [gemcitabine, 2′,2′difluoro-2′deoxycytidine], the “top1-mediated DNA cleavage” value (topoisomerase I (top1)) is listed as “enhanced”, the “inhibitory effects in normal primary prostatic epithelial cells” value [21] is listed as “no inhibitory effects” and the “resistance of P388/CPT45 top1-deficient cells to gemcitabine” value [22] is listed as 5 fold. For the same compound, the “response rate with the drug alone” value (ovarian cancer; previously treated patients) was “around 13%”, the “response rate for the drug alone” value (ovarian cancer; previously untreated patients with poor prognostic features) was 24% and the overall response rate (advanced sarcomas; 1250 mg/m(2) i.v. weekly × three, q28 days) was 3%. The median time-to progression (advanced sarcomas; in vivo) was 2.1 months, the “patients who discontinued treatment due to toxicity/refusal” value (advanced sarcomas; in vivo) was 14% and the “hematologic toxicities > or = Grade 3, patients” value (advanced sarcomas; leukopenia and thrombocytopenia) was 32%. The “effect of tetrahydrouridine on antiproliferative activity” value [13] was “increased to some extent”, the “influence on proliferative activity of TT cells” value [23] was “concentration-dependent inhibitory influence” and the “cross resistance to gemcitabine” value ([24]; P388 resistant to 1-beta-D-arabinofuranosylcytosine) was “cross resistant”. The “cross resistance to gemcitabine” value ([24]; P388 resistant to vincristine, cyclophosphamide, melphalan, cisplatin, methotrexate) was “not cross resistant”, the “cross resistance to gemcitabine” value ([24]; multidrug-resistant P388 (resistant to doxorubicin or etoposide)) was “no cross resistance” and the “gemcitabine concentration inhibiting colony formation by two thirds” value [25] was 9 nM. The “dFdC concentration of maximal inhibition of proliferation and colony formation” value (LNCaP, PC-3 and DU-145; LNCaP, PC-3, DU-145) was 30 nM, the “gemcitabine concentration inhibiting colony formation by two thirds” value (LNCaP, PC-3 and DU-145; prostatic tumor cells) was “about 3.5 nM” and the “efficacy in tumors with higher levels of Cyd deaminase” value (human cancer xenograft) was “only slightly active”.
